These results are taken from patent US12258370B2, “Betulastatin compounds” (Arizona Board of Regents on behalf of Arizona State …, priority 2017, dated 2025).

Common to all, as to type: cell-based
Assay [1] relates to MCF-7 (breast). Put plainly: Sulforhodamine B human cancer cell growth inhibition, MCF-7. The note with it: compounds in DMSO, 48 h; for Gl50 Growth Inhibition, MCF-7: MCF-7 breast cell line; for IC50: Homo sapiens, MCF7, MCF-7 breast cell line, read-out: Gl50 Growth Inhibition, MCF-7. How it is done:
(§1) Cancer Cell Line Procedures. Inhibition of human cancer cell growth was assessed using the standard sulforhodamine B assay of the U.S. National Cancer Institute, as previously described.^15 To begin, cells in a 5% fetal bovine serum/RPMI1640 medium were inoculated in 96-well plates and incubated for 24 h. Next, serial dilutions of the compounds were added. After 48 h, the plates were fixed with trichloroacetic acid, stained with sulforhodamine B, and read with an automated microplate reader.

Assay [2] has as its system NCI-H460 (lung). Put plainly: Sulforhodamine B human cancer cell growth inhibition, NCI-H460. The note with it: NCI-H460 lung cell line, compounds in DMSO, 48 h; for IC50: Homo sapiens, read-out: Gl50 Growth Inhibition, NCI-H460. The protocol: as §1
In assay [3] the test system is KM20L2 (colon). The experiment in a line: Sulforhodamine B human cancer cell growth inhibition, KM20L2. To be noted: compounds in DMSO, 48 h; for Gl50 Growth Inhibition, KM20L2: KM20L2 colon cell line; for IC50: Homo sapiens, KM-20L2, KM20L2 colon cell line, read-out: Gl50 Growth Inhibition, KM20L2. How it is done:
as §1

The test system of assay [4] is DU-145 (prostate). Put plainly: Sulforhodamine B human cancer cell growth inhibition, DU-145. To be noted: DU-145 prostate cell line, compounds in DMSO, 48 h; for IC50: Homo sapiens, read-out: Gl50 Growth Inhibition, DU-145. The protocol:
as §1

Assay [5] deals with SF-268 (CNS). The experiment in a line: Sulforhodamine B human cancer cell growth inhibition, SF-268. To be noted: SF-268 CNS cell line, compounds in DMSO, 48 h; for IC50: Homo sapiens, read-out: Gl50 Growth Inhibition, SF-268. How it is done:
as §1

The subject of assay [6] is BXPC-3 (pancreas). Put plainly: Sulforhodamine B human cancer cell growth inhibition, BXPC-3. The note with it: BXPC-3 pancreas cell line, compounds in DMSO, 48 h; for IC50: Homo sapiens, read-out: Gl50 Growth Inhibition, XPC-3. The protocol: as §1

≈ marks a conversion by molar mass, not a printed value. A value given as a limit tells only on which side of the number the result lay.

For “3-O-Acetyl-28-amido-allobetulin-28-N-1′-ethyldiamine-N-2′-Dap-Dil-Val-Dov [Compound 18a]”, the “Gl50 Growth Inhibition, MCF-7” value in assay [1] came to 3.6 µg/mL. In assay [2], the “Gl50 Growth Inhibition, NCI-H460” value stood at 5.1 µg/mL. In assay [3], the “Gl50 Growth Inhibition, KM20L2” value came to 3.1 µg/mL. In assay [4], the “Gl50 Growth Inhibition, DU-145” value worked out at 0.39 µg/mL. In addition, the “Gl50 Growth Inhibition, SF-268” value in assay [5] was determined as 1.3 µg/mL. Besides, in assay [6], the “Gl50 Growth Inhibition, XPC-3” value was 3.8 µg/mL.
Regarding `C=C(C)[C@@H]1CC[C@]2(COC(C)=O)CC[C@]3(C)[C@H](CC[C@@H]4[C@@]5(C)CCC(N)C(C)(C)[C@@H]5CC[C@]43C)[C@@H]12` (single isomer, unassigned) [Compound 9a, 3-α/β-Amino-28-O-acetyl-betulin], the “Gl50 Growth Inhibition, MCF-7” value in assay [1] worked out at 2.1 µg/mL. Moreover, the “Gl50 Growth Inhibition, NCI-H460” value in assay [2] stood at 6.0 µg/mL. Also, the “Gl50 Growth Inhibition, KM20L2” value in assay [3] worked out at 3.0 µg/mL. The “Gl50 Growth Inhibition, DU-145” value in assay [4] amounted to 1.3 µg/mL. Besides, the “Gl50 Growth Inhibition, SF-268” value in assay [5] was determined as 1.2 µg/mL. In assay [6], the “Gl50 Growth Inhibition, XPC-3” value is greater than 10 µg/mL.
With `C=C(C)[C@@H]1CC[C@]2(CO)CC[C@]3(C)[C@H](CC[C@@H]4[C@@]5(C)CC[C@H](O)C(C)(C)[C@@H]5CC[C@]43C)[C@@H]12` [Betulin, betulin, reference compound], the IC50 was greater than 10 µg/mL in assay [1]; 7.4 µg/mL (≈ 16.7 µM) in assay [2]; greater than 10 µg/mL in assay [3]; greater than 10 µg/mL in assay [4]; greater than 10 µg/mL in assay [5]; 9.3 µg/mL (≈ 21 µM) in assay [6].
For `C=C(C)[C@@H]1CC[C@]2(C=O)CC[C@]3(C)[C@H](CC[C@@H]4[C@@]5(C)CC[C@H](OC(C)=O)C(C)(C)[C@@H]5CC[C@]43C)[C@@H]12` [Compound 1, 3-O-Acetyl-28-betulinal], the “Gl50 Growth Inhibition, MCF-7” value in assay [1] was greater than 10 µg/mL. Further, in assay [2], the “Gl50 Growth Inhibition, NCI-H460” value was greater than 10 µg/mL. For the same molecule, in assay [3], the “Gl50 Growth Inhibition, KM20L2” value is greater than 10 µg/mL. Further, in assay [4], the “Gl50 Growth Inhibition, DU-145” value was greater than 10 µg/mL. Besides, the “Gl50 Growth Inhibition, SF-268” value in assay [5] is greater than 10 µg/mL. In assay [6], the “Gl50 Growth Inhibition, XPC-3” value was greater than 10 µg/mL.
For the molecule `C=C(C)[C@@H]1CC[C@]2(/C=N/O)CC[C@]3(C)[C@H](CC[C@@H]4[C@@]5(C)CC[C@H](OC(C)=O)C(C)(C)[C@@H]5CC[C@]43C)[C@@H]12` [Compound 2, 3-O-Acetyl-28-oxime-betulin], the “Gl50 Growth Inhibition, MCF-7” value in assay [1] is 4.5 µg/mL. In addition, the “Gl50 Growth Inhibition, NCI-H460” value in assay [2] came out at 4.1 µg/mL. Besides, in assay [3], the “Gl50 Growth Inhibition, KM20L2” value turned out to be 5.1 µg/mL. Further, the “Gl50 Growth Inhibition, DU-145” value in assay [4] was greater than 10 µg/mL. For the same molecule, the “Gl50 Growth Inhibition, SF-268” value in assay [5] was 13.2 µg/mL. For the same molecule, the “Gl50 Growth Inhibition, XPC-3” value in assay [6] came to 15.5 µg/mL.
For `C=C(C)[C@@H]1CC[C@]2(CN)CC[C@]3(C)C(CCC4[C@@]5(C)CC[C@H](OC(C)=O)C(C)(C)C5CC[C@]43C)C12` (stereo partly drawn) [Compound 3, 3-O-Acetyl-28-aminobetulin], the IC50 was found to be 1.8 µg/mL (≈ 3.72 µM) in assay [1]; 1.9 µg/mL (≈ 3.93 µM) in assay [2]; 1.9 µg/mL (≈ 3.93 µM) in assay [3]; 1.8 µg/mL (≈ 3.72 µM) in assay [4]; 1.8 µg/mL (≈ 3.72 µM) in assay [5]; 1.9 µg/mL (≈ 3.93 µM) in assay [6].
Consider `C=C(C)[C@@H]1CC[C@]2(CNC(=O)[C@H](C)[C@@H](OC)C3CCCN3C(=O)OC(C)(C)C)CC[C@]3(C)C(CCC4[C@@]5(C)CC[C@H](OC(C)=O)C(C)(C)C5CC[C@]43C)C12` (stereo partly drawn) [Compound 5, 3-O-Acetyl-28-amino-N-(Boc-dap)-betulin], for which the IC50 in assay [1], in assay [2], in assay [3], in assay [4], in assay [5] and in assay [6] was greater than 10 µg/mL each time.
On to `C=C(C)[C@@H]1CC[C@]2(CNC(=O)[C@H](C)[C@@H](OC)[C@@H]3CCCN3C(=O)C[C@@H](OC)[C@H]([C@@H](C)CC)N(C)C(=O)[C@@H](NC(=O)[C@H](C(C)C)N(C)C)C(C)C)CC[C@]3(C)[C@H](CC[C@@H]4[C@@]5(C)CC[C@H](OC(C)=O)C(C)(C)[C@@H]5CC[C@]43C)[C@@H]12` [Compound 7a, 3-O-Acetyl-28-amino-N-(Dap-Dil-Val-Dov)-betulin], for which, in assay [1], the “Gl50 Growth Inhibition, MCF-7” value came to 3.6 µg/mL. The “Gl50 Growth Inhibition, NCI-H460” value in assay [2] was determined as 4.2 µg/mL. The “Gl50 Growth Inhibition, KM20L2” value in assay [3] amounted to 2.4 µg/mL. For the same molecule, the “Gl50 Growth Inhibition, DU-145” value in assay [4] worked out at 3.7 µg/mL. Further, the “Gl50 Growth Inhibition, SF-268” value in assay [5] was found to be 2.6 µg/mL. Moreover, the “Gl50 Growth Inhibition, XPC-3” value in assay [6] stood at 4.1 µg/mL.
For `C=C(C)[C@@H]1CC[C@]2(COC(C)=O)CC[C@]3(C)C(CCC4[C@@]5(C)CC/C(=N/O)C(C)(C)[C@@H]5CC[C@]43C)[C@@H]12` (stereo partly drawn) [Compound 8, 3-Oxime-28-O-acetyl-betulin], the IC50 is 5.9 µg/mL (≈ 11.9 µM) in assay [1]; greater than 10 µg/mL in assay [2]; 14.1 µg/mL (≈ 28.3 µM) in assay [3]; greater than 10 µg/mL in assay [4]; greater than 10 µg/mL in assay [5]; 10.4 µg/mL (≈ 20.9 µM) in assay [6].
Consider `C=C(C)[C@@H]1CC[C@]2(COC(C)=O)CC[C@]3(C)C(CCC4[C@@]5(C)CC[C@H](NC(=O)[C@H](C)[C@@H](OC)C6CCCN6C(=O)OC(C)(C)C)C(C)(C)[C@@H]5CC[C@]43C)[C@@H]12` (stereo partly drawn) [Compound 10, 3-β-Amino-N-(Boc-Dap)-28-O-acetyl-betulin], for which the IC50 in assay [1], in assay [2], in assay [3], in assay [4], in assay [5] and in assay [6] was greater than 10 µg/mL in each case.
For `C=C(C)[C@@H]1CC[C@]2(COC(C)=O)CC[C@]3(C)[C@H](CC[C@@H]4[C@@]5(C)CC[C@H](NC(=O)[C@H](C)[C@@H](OC)[C@@H]6CCCN6C(=O)C[C@@H](OC)[C@H]([C@@H](C)CC)N(C)C(=O)[C@@H](NC(=O)[C@H](C(C)C)N(C)C)C(C)C)C(C)(C)[C@@H]5CC[C@]43C)[C@@H]12` [Compound 11a, 3β-Amino-N-(Dap-Dil-Val-Dov)-28-O-acetyl-betulin], in assay [1], the “Gl50 Growth Inhibition, MCF-7” value was determined as 4.1 µg/mL. Further, the “Gl50 Growth Inhibition, NCI-H460” value in assay [2] is greater than 10 µg/mL. For the same molecule, the “Gl50 Growth Inhibition, KM20L2” value in assay [3] turned out to be 7.0 µg/mL. Also, in assay [4], the “Gl50 Growth Inhibition, DU-145” value amounted to 2.5 µg/mL. In assay [5], the “Gl50 Growth Inhibition, SF-268” value came out at 3.8 µg/mL. Further, the “Gl50 Growth Inhibition, XPC-3” value in assay [6] turned out to be 10.0 µg/mL.
Take `C=C(CBr)[C@@H]1CC[C@]2(COC(C)=O)CC[C@]3(C)[C@H](CC[C@@H]4[C@@]5(C)CC[C@H](OC(C)=O)C(C)(C)[C@@H]5CC[C@]43C)[C@@H]12` [Compound 12, 3,28-Di-O-acetyl-30-bromo-betulin]: the “Gl50 Growth Inhibition, MCF-7” value in assay [1] was greater than 10 µg/mL. Moreover, the “Gl50 Growth Inhibition, NCI-H460” value in assay [2] was greater than 10 µg/mL. Further, the “Gl50 Growth Inhibition, KM20L2” value in assay [3] was greater than 10 µg/mL. In addition, in assay [4], the “Gl50 Growth Inhibition, DU-145” value was greater than 10 µg/mL. The “Gl50 Growth Inhibition, SF-268” value in assay [5] was greater than 10 µg/mL. In addition, the “Gl50 Growth Inhibition, XPC-3” value in assay [6] was greater than 10 µg/mL.
Consider `C=C(CN=[N+]=[N-])[C@@H]1CC[C@]2(COC(C)=O)CC[C@]3(C)C(CCC4[C@@]5(C)CC[C@H](OC(C)=O)C(C)(C)[C@@H]5CC[C@]43C)[C@@H]12` (stereo partly drawn) [Compound 13, 3,28-Di-O-acetyl-30-azido-betulin], for which the IC50 in assay [1], in assay [2], in assay [3], in assay [4], in assay [5] and in assay [6] was greater than 10 µg/mL throughout.
Regarding `C=C(CN)[C@@H]1CC[C@]2(CO)CC[C@]3(C)[C@H](CC[C@@H]4[C@@]5(C)CC[C@H](O)C(C)(C)[C@@H]5CC[C@]43C)[C@@H]12` [Compound 14, 30-Amino-betulin], the “Gl50 Growth Inhibition, MCF-7” value in assay [1] is 3.1 µg/mL. Besides, in assay [2], the “Gl50 Growth Inhibition, NCI-H460” value is 4.0 µg/mL. Further, in assay [3], the “Gl50 Growth Inhibition, KM20L2” value was 2.9 µg/mL. Besides, the “Gl50 Growth Inhibition, DU-145” value in assay [4] was 2.1 µg/mL. Further, in assay [5], the “Gl50 Growth Inhibition, SF-268” value was determined as 4.2 µg/mL. Also, the “Gl50 Growth Inhibition, XPC-3” value in assay [6] worked out at 3.0 µg/mL.
As to `C=C(CNC(=O)[C@H](C)[C@@H](OC)[C@@H]1CCCN1C(=O)OC(C)(C)C)[C@@H]1CC[C@]2(CO)CC[C@]3(C)[C@H](CC[C@@H]4[C@@]5(C)CC[C@H](O)C(C)(C)[C@@H]5CC[C@]43C)[C@@H]12` [Compound 15a, 30-N-(Boc-dap)-betulin], the “Gl50 Growth Inhibition, MCF-7” value in assay [1] turned out to be 9.0 µg/mL. In addition, the “Gl50 Growth Inhibition, NCI-H460” value in assay [2] is greater than 10 µg/mL. Further, the “Gl50 Growth Inhibition, KM20L2” value in assay [3] was greater than 10 µg/mL. The “Gl50 Growth Inhibition, DU-145” value in assay [4] is greater than 10 µg/mL. Further, the “Gl50 Growth Inhibition, SF-268” value in assay [5] was greater than 10 µg/mL. Also, in assay [6], the “Gl50 Growth Inhibition, XPC-3” value is greater than 10 µg/mL.
